Calls of active or inactive are those of the source. No rule for the calls is given here.
What follows are molecules tested against UPR counterscreen luciferase reporter, luminescence (assay: luciferase reporter activation, UPR counterscreen line – cell-based, luminescence, counter-screen for adaptive UPR activator project, dose response (AID 489027)).

**Q.** Which EC50 does the source give for `O=C(Nc1ccc(Br)cc1)c1cc(-c2ccncc2)nc2ccccc12` here?
**A.** Its EC50 is 12.7 µM.

**Q.** For `C=CCn1c(O)c(C2=c3ccccc3=NC2=O)sc1=Nc1ccc(O)cc1`, which EC50 is on record?
**A.** The EC50 was 18.3 µM.

**Q.** How did the EC50 turn out when `CCOc1cc(/C=N/NC(N)=S)cc(Br)c1OCc1ccccc1C` was run?
**A.** Its EC50 is 12.5 µM.

**Q.** `CN(C)S(=O)(=O)c1ccc(N2CCCC2)c(C(=O)Nc2nccs2)c1` was tested. Which EC50 did it give?
**A.** The EC50 was “inactive”.

**Q.** Which EC50 does the source give for `COc1ccc(-c2nn(C)c(=O)c3ccccc23)cc1NC(=O)Cn1nc(C)c2ccccc2c1=O` here?
**A.** The EC50 was > 80 µM (inactive).

**Q.** `CCCCC1CCC(C(=O)N(CC(C)C)c2c(N)n(CCCC)c(=O)[nH]c2=O)CC1` (stereo not drawn) was tested. Which EC50 did it give?
**A.** The EC50 was > 80 µM (inactive).

**Q.** With `COc1ccc(-c2c/c(=N\c3nc(-c4ccccc4)c(C)s3)c3ccccc3o2)cc1O` as the molecule, how does the EC50 read?
**A.** Its EC50 is “inactive”.

**Q.** For `CCOc1ccccc1CNC(=O)C1CCN(c2nnc(C)c3c(C)n(-c4ccc(C)cc4)nc23)CC1`, which EC50 is on record?
**A.** The EC50 was > 80 µM (inactive).

**Q.** How did the EC50 turn out when `O=C1NC(=O)N(Cc2ccccc2)C(=O)/C1=C\c1ccco1` was run?
**A.** The EC50 was “inactive”.

**Q.** Which EC50 does the source give for `NS(=O)(=O)c1ccc(N/N=C2/CCCCC2C2CCCCC2)c([N+](=O)[O-])c1` (stereo not drawn) here?
**A.** The EC50 was 15 µM.

**Q.** `CN(C)CCCNC(=O)c1ccc(-c2nc(-c3ccc(Cl)cc3)cs2)cc1` was tested. Which EC50 did it give?
**A.** Its EC50 is 9.53 µM.

**Q.** With `CCN(CC)S(=O)(=O)c1ccc(N/N=C(\C)c2ccc3c(c2)OCO3)c([N+](=O)[O-])c1` as the molecule, how does the EC50 read?
**A.** Its EC50 is “inactive”.

**Q.** How did the EC50 turn out when `CCCOC(=O)c1cccc(Nc2nc(-c3cccnc3)nc3ccccc23)c1` was run?
**A.** The EC50 was > 80 µM (inactive).

**Q.** For `CCOC(=O)C1=C(C)N=c2s/c(=C3/C(=O)Nc4ccccc43)c(=O)n2C1c1ccc(C)cc1` (stereo not drawn), which EC50 is on record?
**A.** Its EC50 is > 80 µM (inactive).

**Q.** With `N#Cc1ccc(N/N=C/c2cn(-c3ccccc3)nc2-c2ccccc2)c([N+](=O)[O-])c1` as the molecule, how does the EC50 read?
**A.** The EC50 was “inactive”.

**Q.** How did the EC50 turn out when `Cn1c2ccccc2c2cc(/C=N/NC(=O)c3cc(O)ccc3O)ccc21` was run?
**A.** The EC50 was 4.02 µM.

**Q.** How did the EC50 turn out when `CSC1=NC(C)(C)C=C(/C=C/c2ccc(Cl)cc2)N1` was run?
**A.** Its EC50 is 9.17 µM.

**Q.** With `Cc1c(CCOC(=O)C23CC4(C)CC(C)(CC(C)(C4)C2)C3)sc[n+]1CC(=O)c1ccccc1` as the molecule, how does the EC50 read?
**A.** The EC50 was > 80 µM (inactive).

**Q.** `COc1ccc2cc1Oc1ccc(cc1)C[C@H]1c3c(cc(OC)c4c3Oc3c(ccc5c3[C@H](C2)N(C)CC5)O4)CCN1C` was tested. Which EC50 did it give?
**A.** The EC50 was 7.91 µM.

**Q.** How did the EC50 turn out when `COc1ccc(C(CCNC(C)c2ccccc2)c2ccc(F)cc2)cc1` (stereo not drawn) was run?
**A.** The EC50 was “inactive”.

**Q.** How did the EC50 turn out when `CCOC(=O)C1=C(C)N=C2c3ccccc3C(=O)C2C1c1ccc(C)cc1` (stereo not drawn) was run?
**A.** Its EC50 is > 80 µM (inactive).

**Q.** `Cc1ccc(N2CCN(c3ccc(NCc4nc5ccccc5n4C)cc3)CC2)cc1` was tested. Which EC50 did it give?
**A.** The EC50 was “inactive”.

**Q.** Which EC50 does the source give for `COc1ccc(/C=c2\s/c(=C(/C#N)C(=O)NCc3ccco3)n(-c3ccccc3)c2=O)cc1` here?
**A.** The EC50 was “inactive”.

**Q.** How did the EC50 turn out when `Cc1cc(NC(=O)c2cncc(Br)c2)ccc1NC(=O)c1cc2ccccc2o1` was run?
**A.** The EC50 was > 80 µM (inactive).

**Q.** How did the EC50 turn out when `CN(C)c1ccc(/C=N/NC(=O)c2ccc(NC(=O)c3ccccc3)cc2)cc1` was run?
**A.** The EC50 was “inactive”.

**Q.** With `COc1ccc2[nH]c3nc(SCc4nnc(-c5ccc(C)cc5)o4)nnc3c2c1` as the molecule, how does the EC50 read?
**A.** The EC50 was 19.7 µM.

**Q.** With `CCOc1ccc(S(=O)(=O)Nc2cccc(C(=O)NCC3(N4CCCCC4)CCCCC3)c2)cc1` as the molecule, how does the EC50 read?
**A.** The EC50 was “inactive”.

**Q.** Which EC50 does the source give for `Nc1nc(SCc2ccc(Cl)cc2Cl)nc2nc3c(cc12)CCCC3` here?
**A.** The EC50 was > 80 µM (inactive).

**Q.** For `COc1ccc(N=c2oc3ccc(OC)cc3cc2-c2nc3ccccc3[nH]2)cc1`, which EC50 is on record?
**A.** The EC50 was 6.79 µM.

**Q.** Which EC50 does the source give for `C=CCN(CC=C)S(=O)(=O)c1ccc(C(=O)Nc2nc3c(s2)CCc2ccccc2-3)cc1` here?
**A.** Its EC50 is > 80 µM (inactive).

**Q.** With `COC(=O)C1C(O)=C(C=Nc2cccc3ccccc23)C(=O)CC1(C)C` (stereo not drawn) as the molecule, how does the EC50 read?
**A.** The EC50 was 1.41 µM.

**Q.** `CCOc1ccccc1NC(=O)Cn1c(=O)n(-c2ccccc2)c(=O)c2oc3ccccc3c21` was tested. Which EC50 did it give?
**A.** Its EC50 is > 80 µM (inactive).

**Q.** `CC1CN(S(=O)(=O)c2ccc(C(=O)Nc3nc(-c4cc5ccccc5o4)cs3)cc2)CC(C)O1` (stereo not drawn) was tested. Which EC50 did it give?
**A.** Its EC50 is 13.2 µM.

**Q.** How did the EC50 turn out when `COc1ccc(-c2c(-c3cc(OC)cc(OC)c3)n(C)c3ccc(-c4cnc(N)nc4)cc23)cc1` was run?
**A.** The EC50 was > 80 µM (inactive).

**Q.** How did the EC50 turn out when `COc1ccc(CNC(=O)/C(C#N)=C/c2cccc(OC)c2OC)cc1` was run?
**A.** Its EC50 is “inactive”.

**Q.** Which EC50 does the source give for `Cc1ccc(-n2c(O)c(/C=N/c3ncc(Br)cc3Br)c(=O)[nH]c2=O)cc1` here?
**A.** Its EC50 is “inactive”.

**Q.** How did the EC50 turn out when `COc1ccc(-c2cc(=O)oc3c(C)c(OC(=O)c4cccs4)ccc23)cc1` was run?
**A.** The EC50 was > 80 µM (inactive).

**Q.** How did the EC50 turn out when `CCOc1ccc(-n2nc3ccc(NC(=O)c4ccc5c(c4)OCCO5)cc3n2)cc1` was run?
**A.** Its EC50 is “inactive”.

**Q.** For `Oc1cccc2ccc(/C=C/c3ccc(Br)s3)nc12`, which EC50 is on record?
**A.** Its EC50 is “inactive”.

**Q.** For `CCCCCCCCCCOC(=O)Cn1c(COc2ccccc2OC)[n+](C)c2ccccc21`, which EC50 is on record?
**A.** Its EC50 is 12.8 µM.

**Q.** How did the EC50 turn out when `COc1ccc(-c2nnc(SCC(=O)Nc3sc4c(c3C#N)CCCC4)n2-c2ccccc2)cc1` was run?
**A.** Its EC50 is 16.1 µM.

**Q.** How did the EC50 turn out when `Cc1ccc(-c2nnn(CC(=O)N(Cc3cccs3)C(C(=O)NC3CCCCC3)c3ccco3)n2)o1` (stereo not drawn) was run?
**A.** The EC50 was > 80 µM (inactive).

**Q.** Which EC50 does the source give for `COc1ccc(-c2csc(C3=C(O)CN(Cc4ccc(Cl)cc4)C3=N)n2)cc1OC` here?
**A.** Its EC50 is > 80 µM (inactive).

**Q.** For `CN(C)CC(CCC(CN(C)C)C(O)(c1ccccc1)c1ccccc1)C(O)(c1ccccc1)c1ccccc1` (stereo not drawn), which EC50 is on record?
**A.** Its EC50 is 6.06 µM.

**Q.** With `O=C1c2cccc3cc(Br)cc(c23)C(=O)N1Nc1ccc(Br)cc1` as the molecule, how does the EC50 read?
**A.** Its EC50 is “inactive”.

**Q.** How did the EC50 turn out when `Cc1ccc2oc(C(Cl)(Cl)Cl)cc(=O)c2c1` was run?
**A.** Its EC50 is > 80 µM (inactive).

**Q.** With `COc1cc(-c2noc(C)c2/C=C/c2ccc(OC(C)=O)cc2)cc(OC)c1OC` as the molecule, how does the EC50 read?
**A.** Its EC50 is > 80 µM (inactive).

**Q.** Which EC50 does the source give for `Cc1cnc(NC(=O)c2cc3c(C)nn(Cc4ccccc4Cl)c3s2)s1` here?
**A.** The EC50 was > 80 µM (inactive).

From PubChem BioAssay AID489027 (Sanford-Burnham Center for Chemical Genomics, 2010)
